Here are results for 22 molecules from US12319655B2, “RAF kinase inhibitors and methods of use thereof” (Deciphera Pharmaceuticals, LLC, priority 2021, dated 2025).

Each structure is given as a SMILES string.

Test [1] has as its target B-Raf kinase (SEQ. ID NO: 2) (Homo sapiens (Human), UniProt P15056). Briefly: Biochemical Assay for B-Raf (1). Conditions: Table J, assay version (1); read-out: BRAF (1) IC50. Here is the method: Biochemical Assay for B-Raf (1)
(§1) Activity of B-Raf kinase (SEQ. ID NO: 2) was determined spectroscopically using a coupled pyruvate kinase/lactate dehydrogenase assay that continuously monitors the ATP hydrolysis-dependent oxidation of NADH (e.g., Schindler et al., Science, 2000, 289, 1938-1942). Assays were conducted in 384-well plates (100 μL final volume) using 0.13 nM B-Raf (Sigma), 1.5 units pyruvate kinase, 2.1 units lactate dehydrogenase, 1 mM phosphoenol pyruvate, 0.28 mM NADH, 30.1 nM MEK (SignalChem), and 1 mM ATP in assay buffer (100 mM Tris, Ph 7.5, 15 mM MgCl2, 0.5 mM DTT, 0.1% octyl-glucoside, 0.002% (w/v) BSA, and 0.002% Triton X-100). Inhibition of B-Raf was measured by adding serial diluted test compound (final assay concentration of 1% DMSO). A decrease in absorption at 340 nm was monitored continuously for 6 h at 30° C. on a multi-mode microplate reader (BioTek). The reaction rate was calculated using the 4 to 5 h time frame. The reaction rate at each concentration of compound was converted to percent inhibition using controls (i.e., reaction with no test compound and reaction with a known inhibitor) and IC50 values were calculated by fitting a four-parameter sigmoidal curve to the data using Prism (GraphPad software).

Test [2] addresses B-Raf (V600E) (SEQ. ID NO: 4) kinase (Homo sapiens (Human), UniProt P15056, V600E). Briefly: Biochemical Assay for B-Raf (V600E) (1). The conditions noted are these: Table J, BRAF V600E, assay version (1); read-out: BRAF VE (1) IC50. Here is the method: Biochemical Assay for B-Raf (V600E) (1)
Activity of B-Raf (V600E) (SEQ. ID NO: 4) kinase was determined spectroscopically using a coupled pyruvate kinase/lactate dehydrogenase assay that continuously monitors the ATP hydrolysis-dependent oxidation of NADH (e.g., Schindler et al., Science, 2000, 289, 1938-1942). Assays were conducted in 384-well plates (100 μL final volume) using 0.03 nM B-Raf (SignalChem), 1.5 units pyruvate kinase, 2.1 units lactate dehydrogenase, 1 mM phosphoenol pyruvate, 0.28 mM NADH, 30.1 nM MEK (SignalChem), and 1 mM ATP in assay buffer (100 mM Tris, Ph 7.5, 15 mM MgCl2, 0.5 mM DTT, 0.1% octyl-glucoside, 0.002% (w/v) BSA, and 0.002% Triton X-100). Inhibition of B-Raf (V600E) was measured by adding serial diluted test compound (final assay concentration of 1% DMSO). A decrease in absorption at 340 nm was monitored continuously for 6 h at 30° C. on a multi-mode microplate reader (BioTek). The reaction rate was calculated using the 3 to 4 h time frame. The reaction rate at each concentration of compound was converted to percent inhibition using controls (i.e., reaction with no test compound and reaction with a known inhibitor) and IC50 values were calculated by fitting a four-parameter sigmoidal curve to the data using Prism (GraphPad software).

Test [3] concerns the target C-Raf kinase (SEQ. ID NO: 3) (Homo sapiens (Human), UniProt P04049, Y340D/Y341D). Kind of test: Biochemical Assay for C-Raf (1). The conditions noted are these: Table J, assay version (1); read-out: CRAF (1) IC50. Here is the method: Biochemical Assay for C-Raf (1)
as §1, with “of C-Raf” for “of B-Raf”, “NO: 3)” for “NO: 2)”, “using 0.43” for “using 0.13”, “nM C-Raf” for “nM B-Raf”

The target in test [4] is A-Raf kinase (SEQ. ID No: 1) (Homo sapiens (Human), UniProt P10398, Y301D/Y302D). Briefly: Biochemical Assay for A-Raf (1). Conditions: Table J, assay version (1); read-out: ARAF (1) IC50. Here is the method: Biochemical Assay for A-Raf (1)
Chain of A-Raf kinase (SEQ. ID No: 1) (P10398 other isoform, or with tags, fused parts or gaps Y301D (already in the parent)/Y302D (already in the parent)): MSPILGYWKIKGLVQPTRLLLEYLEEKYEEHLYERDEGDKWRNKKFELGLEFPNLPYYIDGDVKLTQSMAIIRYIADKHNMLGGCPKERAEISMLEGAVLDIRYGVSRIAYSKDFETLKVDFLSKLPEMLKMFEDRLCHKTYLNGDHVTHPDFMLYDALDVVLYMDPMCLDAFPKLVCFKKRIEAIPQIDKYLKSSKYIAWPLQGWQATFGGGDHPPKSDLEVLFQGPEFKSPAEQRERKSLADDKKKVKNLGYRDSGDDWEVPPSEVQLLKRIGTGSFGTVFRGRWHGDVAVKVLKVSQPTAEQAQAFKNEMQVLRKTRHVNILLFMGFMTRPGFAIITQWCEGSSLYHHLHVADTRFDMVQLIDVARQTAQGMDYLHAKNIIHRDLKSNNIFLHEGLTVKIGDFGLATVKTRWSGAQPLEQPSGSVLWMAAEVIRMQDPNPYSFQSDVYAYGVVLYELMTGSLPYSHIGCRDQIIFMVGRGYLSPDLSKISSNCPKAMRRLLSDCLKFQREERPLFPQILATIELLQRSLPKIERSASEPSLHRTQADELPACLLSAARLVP
as §1, with “A-Raf” for “B-Raf”, “No: 1)” for “NO: 2)”, “5.55” for “0.13”, “pH” for “Ph”

Chain of B-Raf (V600E) (SEQ. ID NO: 4) kinase (P15056 416-766 V600E): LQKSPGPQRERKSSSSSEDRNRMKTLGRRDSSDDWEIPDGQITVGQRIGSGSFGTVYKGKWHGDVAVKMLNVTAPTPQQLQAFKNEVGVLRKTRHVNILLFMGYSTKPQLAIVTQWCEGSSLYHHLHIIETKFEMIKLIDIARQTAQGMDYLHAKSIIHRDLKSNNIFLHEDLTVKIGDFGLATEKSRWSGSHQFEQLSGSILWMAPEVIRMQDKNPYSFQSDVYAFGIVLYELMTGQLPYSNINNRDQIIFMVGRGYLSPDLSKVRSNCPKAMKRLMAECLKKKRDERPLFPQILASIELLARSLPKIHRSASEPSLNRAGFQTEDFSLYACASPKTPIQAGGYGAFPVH
Chain of C-Raf kinase (SEQ. ID NO: 3) (P04049 307-648 Y340D/Y341D): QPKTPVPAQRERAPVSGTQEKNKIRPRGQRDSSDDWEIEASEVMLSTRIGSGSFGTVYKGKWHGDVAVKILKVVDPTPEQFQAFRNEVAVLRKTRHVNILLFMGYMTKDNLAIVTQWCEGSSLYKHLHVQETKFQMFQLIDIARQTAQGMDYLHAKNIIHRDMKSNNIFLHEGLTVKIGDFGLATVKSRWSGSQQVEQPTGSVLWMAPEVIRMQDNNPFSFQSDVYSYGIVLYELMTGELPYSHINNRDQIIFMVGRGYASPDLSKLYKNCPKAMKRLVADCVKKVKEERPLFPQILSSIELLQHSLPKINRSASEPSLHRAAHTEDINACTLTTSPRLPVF
Chain of B-Raf kinase (SEQ. ID NO: 2) (P15056 416-766): as the sequence (P15056 416-766 V600E) above, with E185V counted along it

Consider `COC1(C(=O)Nc2cc(-c3cccc(-c4cc(NC(=O)c5ccnc(C(C)(C)C#N)c5)ccc4C)c3)ncn2)CC1` [Example 243], for which the IC50 (commonly the midpoint of a concentration-inhibition curve) in test [1] was 500 to 1000 nM; in test [2] it was at most 100 nM; in test [3] it was 100 to 500 nM; in test [4], 1000 to 10000 nM.
The like results for `Cc1cc(F)c(NC(=O)c2ccnc(C(C)(C)C#N)c2)cc1-c1nccc(-c2ccnc(NC(=O)C3CC3)c2)n1` [Example 244] were, in that order, at most 100 nM, at most 100 nM, at most 100 nM and 100 to 500 nM.
The matching figures for `CCOc1ncc(-c2cc(NC(=O)c3ccnc(C(C)(C)C#N)c3)ccc2C)cc1-c1ccnc(C(=O)NC)c1` [Example 260]: 100 to 500 nM, at most 100 nM, at most 100 nM and 1000 to 10000 nM.
Take `Cc1cc(C(=O)Nc2cnc(C)c(-c3nccc(-c4ccnc(NC(=O)C5CC5)c4)n3)c2)ccn1` [Example 296]: the IC50 was 100 to 500 nM in test [1], at most 100 nM in test [2], 100 to 500 nM in test [3] and 1000 to 10000 nM in test [4].
On to `Cc1ncc(NC(=O)C2CCN(C)C2)cc1-c1nccc(-c2ccnc(NC(=O)C3CC3)c2)n1` (stereo not shown) [Example 334], for which the IC50 in test [1], in test [2], in test [3] and in test [4] was 1000 to 10000 nM in each case.
Turning to `Cc1ncc(NC(=O)C2CCOC2)cc1-c1nccc(-c2ccnc(NC(=O)C3CC3)c2)n1` (stereo not shown) [Example 335], the IC50 in test [1], in test [2], in test [3] and in test [4] was 1000 to 10000 nM throughout.
In the case of `Cc1ncc(NC(=O)C2CCOCC2)cc1-c1ccnc(-c2ccnc(NC(=O)C3CC3)c2)n1` [Example 336], the IC50 in test [1] lay within 1000 to 10000 nM; in test [2], 500 to 1000 nM; in test [3], 1000 to 10000 nM; in test [4], 1000 to 10000 nM.
Turning to `Cc1ncc(NC(=O)C2CCOC2)cc1-c1ccnc(-c2ccnc(NC(=O)C3CC3)c2)n1` (stereo not shown) [Example 337], the IC50 in test [1], in test [2], in test [3] and in test [4] was 1000 to 10000 nM each time.
Turning to `Cc1ncc(NC(=O)C2CCC3(CC2)COC3)cc1-c1nccc(-c2ccnc(NC(=O)C3CC3)c2)n1` [Example 338], the IC50 in test [1] was 1000 to 10000 nM; in test [2] it was 500 to 1000 nM; in test [3] it was 1000 to 10000 nM; in test [4], 1000 to 10000 nM.
Consider `Cc1ncc(NC(=O)C2CCOCC2)cc1-c1nccc(-c2ccnc(NC(=O)C3CC3)c2)n1` [Example 339], for which the IC50 was in the range of 1000 to 10000 nM in test [1], 100 to 500 nM in test [2], 1000 to 10000 nM in test [3] and 1000 to 10000 nM in test [4].
On to `Cc1ccc(NC(=O)C23CCC(C#N)(CC2)CC3)cc1-c1ccnc(-c2ccnc(NC(=O)C3CC3)c2)n1` [Example 340], for which the IC50 was 1000 to 10000 nM in test [1], at most 100 nM in test [2], 100 to 500 nM in test [3] and 1000 to 10000 nM in test [4].
For the molecule `Cc1ncc(NC(=O)C23CCC(C#N)(CC2)CC3)cc1-c1cccc(-c2ccnc(NC(=O)C3CC3)c2)n1` [Example 342], the IC50 in test [1], in test [2], in test [3] and in test [4] was 1000 to 10000 nM throughout.
As for `CO[C@H]1CC[C@H](C(=O)Nc2cnc(C)c(-c3cccc(-c4ccnc(NC(=O)C5CC5)c4)n3)c2)CC1` [Example 343], the IC50 in test [1] was 1000 to 10000 nM; in test [2], 100 to 500 nM; in test [3] it was 500 to 1000 nM; in test [4], 1000 to 10000 nM.
Regarding `Cc1ccc(NC(=O)C2CCN(C)C2)cc1-c1cccc(-c2cc(NC(=O)C3CC3)ncn2)c1` (stereo not shown) [Example 344], the IC50 in test [1] fell in the range of 1000 to 10000 nM; in test [2] it was 100 to 500 nM; in test [3], 500 to 1000 nM; in test [4], 1000 to 10000 nM.
Consider `Cc1ccc(NC(=O)C2CCOC2)cc1-c1cccc(-c2cc(NC(=O)C3CC3)ncn2)c1` (stereo not shown) [Example 345], for which the IC50 is 1000 to 10000 nM in test [1], at most 100 nM in test [2], 100 to 500 nM in test [3] and 1000 to 10000 nM in test [4].
For the molecule `Cc1ncc(NC(=O)C2CCOCC2)cc1-c1cccc(-c2cc(NC(=O)C3CC3)ncn2)c1` [Example 349], the IC50 in test [1] lay in the range of 1000 to 10000 nM; in test [2], 100 to 500 nM; in test [3], 500 to 1000 nM; in test [4], 1000 to 10000 nM.
With `Cc1ncc(NC(=O)C2CNCCO2)cc1-c1cccc(-c2cc(NC(=O)C3CC3)ncn2)c1` (stereo not shown) [Example 350], the IC50 in test [1], in test [2], in test [3] and in test [4] was 1000 to 10000 nM throughout.
In the case of `Cc1ncc(NC(=O)C2CCN(C)C2)cc1-c1cccc(-c2cc(NC(=O)C3CC3)ncn2)c1` (stereo not shown) [Example 351], the IC50 in test [1] lay within 1000 to 10000 nM; in test [2], 500 to 1000 nM; in test [3], 1000 to 10000 nM; in test [4] it was 1000 to 10000 nM.
In the case of `Cc1ncc(NC(=O)C2CCOC2)cc1-c1cccc(-c2cc(NC(=O)C3CC3)ncn2)c1` (stereo not shown) [Example 352], the IC50 in test [1] is 1000 to 10000 nM; in test [2], 500 to 1000 nM; in test [3], 1000 to 10000 nM; in test [4] it was 1000 to 10000 nM.
For the molecule `Cc1ncc(NC(=O)CN2CCOCC2)cc1-c1cccc(-c2cc(NC(=O)C3CC3)ncn2)c1` [Example 353], the IC50 in test [1] fell in the range of 1000 to 10000 nM; in test [2] it was 100 to 500 nM; in test [3] it was 500 to 1000 nM; in test [4], 1000 to 10000 nM.
As to `Cc1ncc(NC(=O)CC2CC(F)(F)C2)cc1-c1nccc(-c2ccnc(NC(=O)C3CC3)c2)n1` [Example 354], the IC50 in test [1] is 500 to 1000 nM; in test [2], at most 100 nM; in test [3], 100 to 500 nM; in test [4], 1000 to 10000 nM.
The matching figures for `Cc1ncc(NC(=O)CC2COC2)cc1-c1nccc(-c2ccnc(NC(=O)C3CC3)c2)n1` [Example 355]: 1000 to 10000 nM, 1000 to 10000 nM, 1000 to 10000 nM and 1000 to 10000 nM.
